Test results from patent US10716749B2, “Methods and compositions for treating a renal disease condition in a subject” (Palo Alto Investors, priority 2005, dated 2020).

Legend:
[1] = system: Patients with a clinical diagnosis of hypertension; assay: Intrarenal administration of a renin inhibitor to treat hypertension; type: in vivo, human; details: weekly infusions via an intrarenal catheter; control: saline infusions; sphygmomanometer
Description: Patients are enrolled on the basis of a clinical diagnosis of hypertension based on serial systolic and diastolic blood pressure measurements by sphygmomanometer. Treatment subjects are treated by weekly infusions of Aliskiren via an intrarenal catheter.

[2] = system: Patients with anticipated use of radiocontrast prior to diagnostic coronary catherization; assay: Intrarenal administration of metoprolol to prevent contrast nephropathy; type: in vivo, human; details: intrarenal infusion 1 hour prior to the procedure; patients receiving radiocontrast
Description: Patients are prospectively enrolled on the basis of anticipated use of radiocontrast prior to a scheduled diagnostic coronary catherization. Treatment subjects are treated by intrarenal infusion of metoprolol 1 hour prior to the procedure.

For `COCCCOc1cc(C[C@@H](C[C@H](N)[C@@H](O)C[C@H](C(=O)NCC(C)(C)C(N)=O)C(C)C)C(C)C)ccc1OC` [Aliskiren], which “diastolic blood pressure measurements compared to control” value [1] is on record?
The value was “significant reduction”.

And the “systolic blood pressure measurements compared to control” value [1]?
The value was “significant reduction”.

With `COCCc1ccc(OCC(O)CNC(C)C)cc1` (stereo not drawn) [metoprolol] as the compound, how does the “incidence of contrast nephropathy (as indicated by a greater than 25% increase in serum creatinine post-procedure) as compared to control” value [2] read?
The value was “significant reduction”.
